Positions of bridges follow the written chain, without caps; N, C: chain ends. Non-standard residues stand in square brackets, D forms with d. Residues, ends and D or L forms follow the SMILES beside them. NMeA = CN[C@@H](C)C(=O)O; Mpa = O=C(O)CCS

For eight molecules, Antidiuretic activity, Pressor activity and Uterine activity results are on record in ChEMBL document CHEMBL1123856, “Synthesis and biological activities of arginine-vasopressin analogues with 4-hydroxyproline in position 7” (1987).

Test [1] deals with Rattus norvegicus. Put plainly: Antidiuretic activity on water loaded, ethanol-anesthetized rat. In kind it is functional, Urine.
Test [2] deals with Rattus norvegicus. The test can be described thus: Pressor activity on urethane-anesthetized, phenoxybenzamine-treated rat. In kind it is functional.
The species named for test [3] is Rattus norvegicus. The test can be described thus: Uterine activity was meseared in isolated rat uterus in solutions in the absence No Mg2+ 0.5 mM in vitro. In kind it is functional.
The species entered for test [4] is Rattus norvegicus. The test can be described thus: Uterine activity was meseared in isolated rat uterus in solutions in the presence Mg2+ 0.5 mM in vitro. In kind it is functional.

Consider `C[C@@H](C(=O)N[C@@H](CCCN=C(N)N)C(=O)NCC(N)=O)N(C)C(=O)[C@@H]1CSSCCC(=O)N[C@@H](Cc2ccc(O)cc2)C(=O)N[C@@H](Cc2ccccc2)C(=O)N[C@@H](CCC(N)=O)C(=O)N[C@@H](CC(N)=O)C(=O)N1` ([Mpa]YFQNC[NMeA]RG-NH2; disulfide 1-6), for which, in the test with Rattus norvegicus [1], the Antidiuretic activity turned out to be 113 units/mg. Moreover, in the test on Rattus norvegicus [2], the Pressor activity amounted to 1 units/mg. Also, the Uterine activity in the test listed under Rattus norvegicus [3] is 2 units/mg; in the test listed under Rattus norvegicus [4] it was 8 IU/mg.
Taken in the same sequence, the figures for `NC(=O)CC[C@@H]1NC(=O)[C@H](Cc2ccccc2)NC(=O)[C@H](Cc2ccc(O)cc2)NC(=O)[C@@H](N)CSSC[C@@H](C(=O)N2C[C@H](O)C[C@H]2C(=O)N[C@@H](CCCN=C(N)N)C(=O)NCC(N)=O)NC(=O)[C@H](CC(N)=O)NC1=O` (stereo in doubt; form 2) were 780 units/mg, 1 units/mg, 225 units/mg and 285 IU/mg.
For `NC(=O)CC[C@@H]1NC(=O)[C@H](Cc2ccccc2)NC(=O)[C@H](Cc2ccc(O)cc2)NC(=O)[C@@H](N)CSSC[C@@H](C(=O)N2C[C@H](O)C[C@H]2C(=O)N[C@@H](CCCN=C(N)N)C(=O)NCC(N)=O)NC(=O)[C@H](CC(N)=O)NC1=O` (stereo in doubt; form 3) the same measures were 614 units/mg, 8 units/mg, 63 units/mg and 176 IU/mg.
For `NC(=O)CC[C@@H]1NC(=O)[C@H](Cc2ccccc2)NC(=O)[C@H](Cc2ccc(O)cc2)NC(=O)[C@@H](N)CSSC[C@@H](C(=O)N2C[C@H](O)C[C@H]2C(=O)N[C@@H](CCCN=C(N)N)C(=O)NCC(N)=O)NC(=O)[C@H](CC(N)=O)NC1=O` (stereo in doubt; form 1) the same measures were 712 units/mg, 4 units/mg, 73 units/mg and 268 IU/mg.
As for `N=C(N)NCCC[C@@H](NC(=O)[C@@H]1CCCN1C(=O)[C@@H]1CSSCCC(=O)N[C@@H](Cc2ccc(O)cc2)C(=O)N[C@@H](Cc2ccccc2)C(=O)N[C@@H](CCC(N)=O)C(=O)N[C@@H](CC(N)=O)C(=O)N1)C(=O)NCC(N)=O` [DESMOPRESSIN], the Antidiuretic activity with Rattus norvegicus [1] came to 1740 units/mg. Also, the Pressor activity in the test on Rattus norvegicus [2] came to 346 units/mg. In the test listed under Rattus norvegicus [3], this molecule had a Uterine activity of 28 units/mg.
Regarding `N=C(N)NCCC[C@H](NC(=O)[C@@H]1CCCN1C(=O)[C@@H]1CSSC[C@H](N)C(=O)N[C@@H](Cc2ccc(O)cc2)C(=O)N[C@@H](Cc2ccccc2)C(=O)N[C@@H](CCC(N)=O)C(=O)N[C@@H](CC(N)=O)C(=O)N1)C(=O)NCC(N)=O` [VASOPRESSIN], in the test with Rattus norvegicus [1], the Antidiuretic activity worked out at 323 units/mg. In the test filed under Rattus norvegicus [3], this molecule returned a Uterine activity of 12 units/mg.
`NC(=O)CC[C@@H]1NC(=O)[C@H](Cc2ccccc2)NC(=O)[C@H](Cc2ccc(O)cc2)NC(=O)CCSSC[C@@H](C(=O)N2CC=C[C@H]2C(=O)N[C@@H](CCCN=C(N)N)C(=O)NCC(N)=O)NC(=O)[C@H](CC(N)=O)NC1=O` yielded an Antidiuretic activity in the test with Rattus norvegicus [1] of 4130 units/mg. In the test on Rattus norvegicus [2], this molecule registered a Pressor activity of 240 units/mg. In the test filed under Rattus norvegicus [3], the Uterine activity was 69 units/mg.
In the test on Rattus norvegicus [1], `CC(C)C[C@H](NC(=O)[C@@H]1CSSC[C@H](N)C(=O)N[C@@H](Cc2ccc(O)cc2)C(=O)N[C@@H](Cc2ccccc2)C(=O)N[C@@H](CCC(N)=O)C(=O)N[C@@H](CC(N)=O)C(=O)N1)C(=O)N[C@@H](CCCN=C(N)N)C(=O)NCC(N)=O` (H-CYFQNCLRG-NH2; disulfide 1-6) yielded an Antidiuretic activity of 19 units/mg.
